Reference: patent publication US7713914B2 (priority 2005, dated 2010)

Assays:
[1] = system: Bacillus cereus spores; type: cell-based
[2] = system: Bacillus anthracis endospores
[3] = Solubility of DPA in water; type: physicochemical

O=CO [formic acid]
SERS of DPA (CaDPA release at room temperature) [1]: observed

CCCCCCCCCCCCN [DDA, dodecylamine, reference compound]
Exposure required before a reasonable DPA SERS signal was observed [1]: 1 h

CC(=O)O [glacial acetic acid, acetic acid]
DPA concentration calculated from 1008 cm-1 peak ([2]; Example 1, hypothetical 1000 spores, 50 microL, 1 minute): 20±10 ng per 1 mL
Time in which most, if not all, of the CaDPA is released ([2]; acid dispensed onto surface): 1 to 5 min

CC(O)C(=O)O (stereo not shown) [lactic acid]
SERS of DPA (CaDPA release at room temperature) [1]: observed

O=C(O)c1cccc(C(=O)O)n1 [DPA, dipicolinic acid]
Solubility in water [3]: only slightly soluble

O=C(O)C(F)(F)F [trifluoroacetic acid]
SERS of DPA (CaDPA release at room temperature) [1]: observed
